Measured values from ChEMBL document CHEMBL1155052, “Hypaphorine, an indole alkaloid from Erythrina velutina, induced sleep on normal mice” (2008).

Legend:
Type in all cases: functional
Conditions in all cases: route intraperitoneal
Mus musculus [1] = experiment: Increase in total sleep time in C57BL mouse assessed during first hour of administration at 300 mg/kg, ip
Mus musculus [2] = experiment: Increase in non-rapid eye movement sleep time in C57BL mouse assessed during first hour of administration at 300 mg/kg, ip
Mus musculus [3] = experiment: Decrease in waking duration in C57BL mouse assessed during first hour of administration at 300 mg/kg, ip; parameters: scale not given: the % may be the effect or the level left

C[N+](C)(C)[C@H](Cc1c[nH]c2ccccc12)C(=O)[O-] [HYPAPHORINE]
Activity (Mus musculus [1]): 32% | Activity (Mus musculus [2]): 33% | Activity (Mus musculus [3]): 16%
